{
  "source": "patent USRE46792E1",
  "about": "“Oxazole compound and pharmaceutical composition” (Otsuka Pharmaceutical Co., Ltd., priority 2005, dated 2018)",
  "data": [
    {"target": "human PDE4D3 (PDE4D) (Homo sapiens (Human), UniProt Q08499)", "sequence (Q08499 other isoform, or with tags, fused parts or gaps)": "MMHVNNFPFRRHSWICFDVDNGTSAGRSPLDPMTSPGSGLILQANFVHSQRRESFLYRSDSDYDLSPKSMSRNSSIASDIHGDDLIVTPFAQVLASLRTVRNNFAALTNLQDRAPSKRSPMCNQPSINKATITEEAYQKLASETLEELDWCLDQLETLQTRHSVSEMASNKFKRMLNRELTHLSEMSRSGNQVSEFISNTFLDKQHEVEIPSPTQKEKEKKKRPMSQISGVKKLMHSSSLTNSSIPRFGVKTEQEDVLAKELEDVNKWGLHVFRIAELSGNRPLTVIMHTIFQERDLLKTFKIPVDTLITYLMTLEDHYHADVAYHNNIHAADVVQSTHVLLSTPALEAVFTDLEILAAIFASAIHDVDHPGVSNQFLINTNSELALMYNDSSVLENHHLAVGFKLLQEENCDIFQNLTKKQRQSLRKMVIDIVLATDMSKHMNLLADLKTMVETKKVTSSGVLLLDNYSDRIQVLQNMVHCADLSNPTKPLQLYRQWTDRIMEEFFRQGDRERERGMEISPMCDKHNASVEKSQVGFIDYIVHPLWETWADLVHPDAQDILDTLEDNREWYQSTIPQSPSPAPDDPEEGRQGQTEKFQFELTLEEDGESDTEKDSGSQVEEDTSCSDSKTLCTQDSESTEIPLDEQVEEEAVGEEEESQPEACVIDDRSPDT", "experiment": "Phosphodiesterase (PDE)4 inhibitory activity evaluation test ([3H]cAMP hydrolysis by PDE4D enzyme solution)", "type": "biochemical", "conditions": "recombinant human PDE4D3 expressed in COS-7 cells; [3H]cAMP substrate; 10 min at 30° C.; 2% DMSO", "text": "Phosphodiesterase (PDE)4 Inhibitory Activity Evaluation Test\n(1) Large Scale Plasmid Preparation\nPlasmid containing genes (HPDE4D) coding for human PDE4D3 cDNA (stored in Otsuka America Pharmaceutical, Inc., Maryland Research Laboratories) was transformed in E. coli, cultured on a large scale, and purified using an EndoFree™ Plasmid Maxi Kit (Qiagen).\n(2) Abundant Expression and Purification of PDE4D\nCOS-7 cells derived from African green monkey kidneys were passage cultured in D-MEM media containing 100 units/ml penicillin, 100 μg/ml streptomycin, and 10% FBS. The cells were transfected with the plasmid prepared in (1) above using Lipofectamine™ 2000 (hereinafter referred to as “LF2000”, Invitrogen), following the manufacturer's protocol. The COS-7 cells were inoculated in a 10 cm culture dish on the previous day so as to be 90% confluent on the day of transfection. Culture dishes each containing a plasmid solution (solution A) in which 24 μg of plasmid was diluted in 1.5 ml Opti-MEM I Reduced Serum Medium (Invitrogen) and an LF2000 solution (solution B) in which 60 μl of LF2000 was diluted in 1.5 ml Opti-MEM I Reduced Serum Medium were separately allowed to stand for 5 minutes at room temperature. Solutions A and B were then mixed and the mixture was allowed to stand for 20 minutes at room temperature. The mixture was added to the cultured cells, and incubated at 37° C. (5% CO2) overnight. On the following day, the medium was replaced, and the mixture was further incubated overnight to harvest the cells in the following manner. The cells were washed with PBS (Sigma) once, and 10 ml of a Trypsin-EDTA solution (Sigma) was added to each culture dish. After the solution was distributed to each of the culture dishes, the cells were detached, and the dishes were allowed to stand for about 5 minutes at 37° C. The detached cells from the dishes were suspended in media, collected into centrifuge tubes, and centrifuged at 1200 rpm for 5 minutes at 4° C., and supernatants were removed. The cells were further washed with PBS, and stored at −80° C. KHEM buffer (100 mM Hepes, 50 mM KCl, 10 mM EGTA, 1.92 mM MgCl2, pH 7.4) containing 1 mM DTT, 1 μg/ml antipain, 1 μg/ml aprotinin, 1 μg/ml leupeptin, 1 μg/ml pepstatin A, 157 μg/ml benzamidine, and 120 μg/ml Pefabloc SC was added to the stored cells, and the contents were moved to a glass homogenizer to be homogenized on ice. The cell suspension was centrifuged at 1000 rpm for 5 minutes at 4° C., and the supernatant was further centrifuged at 14000 rpm for one hour. After centrifugation, the supernatant was dispensed into new tubes as PDE4D enzyme solutions, and stored in a deep freezer.\n(3) Determination on Dilution Ratio of PDE4D Enzyme Solutions\nThe PDE4D enzyme solutions prepared in (2) above were dissolved in 20 mM Tris-HCl solution (pH 7.4) to give 10-, 25-, 50-, 100-, 200-, 400-, and 800-fold dilutions of the enzyme solutions. PDE4D activities were measured according to (4) below. The percentage of catalyzed cAMP to total cAMP was calculated, and such a dilution, in which the percentage was between 10% and 30%, was adopted in the inhibitory study below.\n(4) Measurement of PDE4D Inhibitory Activity\nNecessary amounts of test compounds were weighed, and 100% dimethylsulfoxide (DMSO) was added thereto to adjust the concentration to 10 mM. The solutions were stored in a freezer as stock solutions of each test compound. After being thawed when required, the solutions were diluted 20-fold with 100% DMSO to give a 500 μM concentration. Further, 10-fold serial dilutions were made with 100% DMSO to prepare test compounds of different concentrations. 2 μl of solutions containing one of each of the test compound were separately added into 1.2 ml tubes in which 23 μl of 20 mM Tris-HCl (pH 7.4) had been placed beforehand. […]", "units": {"IC50": "nM"}, "values": [
      {"smiles": "C=CCCOc1cc(-c2nc(CCC(=O)c3ncccc3C)co2)ccc1OC", "note": "[Example 146, 3-[2-(3-(3-butenyloxy)-4-methoxyphenyl)oxazol-4-yl]-1-(3-methylpyridin-2-yl)propan-1-one]", "IC50": "< 50"},
      {"smiles": "COc1ccc(-c2nc(CCC(=O)c3ncccc3C)co2)cc1OCCC1CC1", "note": "[Example 153, 3-{2-[3-(2-cyclopropylethoxy)-4-methoxyphenyl]oxazol-4-yl}-1-(3-methylpyridin-2-yl)propan-1-one]", "IC50": "< 50"},
      {"smiles": "COc1ccc(-c2nc(CCC(=O)c3ncccc3C)co2)cc1OCC(F)(F)F", "note": "[Example 155, 3-{2-[4-methoxy-3-(2,2,2-trifluoroethoxy)phenyl]oxazol-4-yl}-1-(3-methylpyridin-2-yl)propan-1-one]", "IC50": "< 50"},
      {"smiles": "COc1ccc(-c2nc(CCC(=O)c3ncccc3C)co2)cc1OC1Cc2ccccc2C1", "note": "[Example 159, 3-{2-[3-(indan-2-yloxy)-4-methoxyphenyl]oxazol-4-yl}-1-(3-methylpyridin-2-yl)propan-1-one]", "IC50": "< 50"},
      {"smiles": "C=CCOc1cc(-c2nc(CCC(=O)c3ccccc3OCC=C)co2)ccc1OC", "note": "[Example 166, 3-[2-(3-allyloxy-4-methoxyphenyl)oxazol-4-yl]-1-(2-allyloxyphenyl)propan-1-one]", "IC50": "< 50"},
      {"smiles": "COc1ccc(-c2nc(CCC(=O)c3ccccc3OC)co2)cc1OC(C)C", "note": "[Example 169, 3-[2-(3-isopropoxy-4-methoxyphenyl)oxazol-4-yl]-1-(2-methoxyphenyl)propan-1-one]", "IC50": "< 50"},
      {"smiles": "COc1ccc(-c2nc(CCC(=O)c3ccccc3OC)co2)cc1OCC1CC1", "note": "[Example 170, 3-[2-(3-cyclopropylmethoxy-4-methoxyphenyl)oxazol-4-yl]-1-(2-methoxyphenyl)propan-1-one]", "IC50": "< 50"},
      {"smiles": "CCOc1cc(-c2nc(CCC(=O)c3ccccc3OC)co2)ccc1OC", "note": "[Example 172, 3-[2-(3-ethoxy-4-methoxyphenyl)oxazol-4-yl]-1-(2-methoxyphenyl)propan-1-one]", "IC50": "< 50"},
      {"smiles": "C=CCOc1cc(-c2nc(CCC(=O)c3ccccc3OC)co2)ccc1OC", "note": "[Example 174, 3-[2-(3-allyloxy-4-methoxyphenyl)oxazol-4-yl]-1-(2-methoxyphenyl)propan-1-one]", "IC50": "< 50"},
      {"smiles": "CCOc1ccc(-c2nc(CCC(=O)c3ncccc3C)co2)cc1OCC", "note": "[Example 181, 3-[2-(3,4-diethoxyphenyl)oxazol-4-yl]-1-(3-methylpyridin-2-yl)propan-1-one]", "IC50": "< 50"},
      {"smiles": "CCOc1ccc(-c2nc(CCC(=O)c3ccccc3OCC)co2)cc1OCC", "note": "[Example 182, 3-[2-(3,4-diethoxyphenyl)oxazol-4-yl]-1-(2-ethoxyphenyl)propan-1-one]", "IC50": "< 50"},
      {"smiles": "CCCOc1ccccc1C(=O)CCc1coc(-c2ccc(OC)c(OCC)c2)n1", "note": "[Example 195, 3-[2-(3-ethoxy-4-methoxyphenyl)oxazol-4-yl]-1-(2-propoxyphenyl)propan-1-one]", "IC50": "< 50"},
      {"smiles": "COc1ccc(-c2nc(CCC(=O)c3ccccc3OC(C)C)co2)cc1OCC1CC1", "note": "[Example 208, 3-[2-(3-cyclopropylmethoxy-4-methoxyphenyl)oxazol-4-yl]-1-(2-isopropoxyphenyl)propan-1-one]", "IC50": "< 50"},
      {"smiles": "C=CCOc1ccccc1C(=O)CCc1coc(-c2ccc(OC)c(OC(C)C)c2)n1", "note": "[Example 224, 1-(2-allyloxyphenyl)-3-[2-(3-isopropoxy-4-methoxyphenyl)oxazol-4-yl]propan-1-one]", "IC50": "< 50"},
      {"smiles": "CCOc1cc(-c2nc(CCC(=O)c3ccccc3OC(F)F)co2)ccc1OC", "note": "[Example 274, 1-(2-difluoromethoxyphenyl)-3-[2-(3-ethoxy-4-methoxyphenyl)oxazol-4-yl]propan-1-one]", "IC50": "< 50"},
      {"smiles": "COc1ccc(-c2nc(CCC(=O)c3ccccc3OCCF)co2)cc1OC(C)C", "note": "[Example 275, 1-(2-fluoroethoxyphenyl)-3-[2-(3-isopropoxy-4-methoxyphenyl)oxazol-4-yl]propan-1-one]", "IC50": "< 50"},
      {"smiles": "C=CCCOc1cc(-c2nc(CCC(=O)c3ccccc3OCCF)co2)ccc1OC", "note": "[Example 276, 3-[2-(3-but-3-enyloxy-4-methoxyphenyl)oxazol-4-yl]-1-[2-(2-fluoroethoxy)phenyl]propan-1-one]", "IC50": "< 50"},
      {"smiles": "COc1ccc(-c2nc(CCC(=O)c3ccccc3OCC(F)F)co2)cc1OC(C)C", "note": "[Example 278, 1-[2-(2,2-difluoroethoxy)phenyl]-3-[2-(3-isopropoxy-4-methoxyphenyl)oxazol-4-yl]propan-1-one]", "IC50": "< 50"},
      {"smiles": "CCOc1cc(-c2nc(CCC(=O)c3ccccc3OCC(F)F)co2)ccc1OC", "note": "[Example 280, 1-[2-(2,2-difluoroethoxy)phenyl]-3-[2-(3-ethoxy-4-methoxyphenyl)oxazol-4-yl]propan-1-one]", "IC50": "< 50"},
      {"smiles": "C=CCOc1cc(-c2nc(CCC(=O)c3ccccc3OCC(F)F)co2)ccc1OC", "note": "[Example 281, 3-[2-(3-allyloxy-4-methoxyphenyl)oxazol-4-yl]-1-[2-(2,2-difluoroethoxy)phenyl]propan-1-one]", "IC50": "< 50"},
      {"smiles": "COc1ccc(-c2nc(CCC(=O)c3ccccc3OCC(F)F)co2)cc1OCC1CC1", "note": "[Example 283, 3-[2-(3-cyclopropylmethoxy-4-methoxyphenyl)oxazol-4-yl]-1-[2-(2,2-difluoroethoxy)phenyl]propan-1-one]", "IC50": "< 50"},
      {"smiles": "COc1ccc(-c2nc(CCC(=O)c3ccccc3OCC(F)F)co2)cc1OCC(F)F", "note": "[Example 284, 3-{2-[3-(2,2-difluoroethoxy)-4-methoxyphenyl]oxazol-4-yl}-1-[2-(2,2-difluoroethoxy)phenyl]propan-1-one]", "IC50": "< 50"},
      {"smiles": "COc1ccc(-c2nc(CCC(=O)c3ccccc3OCC(F)F)co2)cc1OCC(C)C", "note": "[Example 285, 1-[2-(2,2-difluoroethoxy)phenyl]-3-[2-(3-isobutoxy-4-methoxyphenyl)oxazol-4-yl]-propan-1-one]", "IC50": "< 50"},
      {"smiles": "CCOc1ccc(-c2nc(CCC(=O)c3ccccc3OCCF)co2)cc1OCC", "note": "[Example 289, 3-[2-(3,4-diethoxyphenyl)oxazol-4-yl]-1-[2-(2-fluoroethoxy)phenyl]propan-1-one]", "IC50": "< 50"},
      {"smiles": "CCOc1ccc(-c2nc(CCC(=O)c3ccccc3OCC(F)F)co2)cc1OCC", "note": "[Example 290, 3-[2-(3,4-diethoxyphenyl)oxazol-4-yl]-1-[2-(2,2-difluoroethoxy)phenyl]propan-1-one]", "IC50": "< 50"},
      {"smiles": "CCOc1ccc(-c2nc(CCC(=O)c3ccc(F)cc3OCC)co2)cc1OCC", "note": "[Example 299, 3-[2-(3,4-diethoxyphenyl)oxazol-4-yl]-1-(2-ethoxy-4-fluorophenyl)propan-1-one]", "IC50": "< 50"},
      {"smiles": "CCOc1cc(-c2nc(CCC(=O)c3ccc(F)cc3OCC)co2)ccc1OC", "note": "[Example 304, 1-(2-ethoxy-4-fluorophenyl)-3-[2-(3-ethoxy-4-methoxyphenyl)oxazol-4-yl]propan-1-one]", "IC50": "< 50"},
      {"smiles": "CCOc1cc(-c2nc(CCC(=O)c3ccc(F)cc3OC(C)C)co2)ccc1OC", "note": "[Example 305, 3-[2-(3-ethoxy-4-methoxyphenyl)oxazol-4-yl]-1-(4-fluoro-2-isopropoxyphenyl)propan-1-one]", "IC50": "< 50"},
      {"smiles": "COc1ccc(-c2nc(CCC(=O)c3ncccc3C)co2)cc1OCC(F)F", "note": "[Example 309, 3-{2-[3-(2,2-difluoroethoxy)-4-methoxyphenyl]oxazol-4-yl}-1-(3-methylpyridin-2-yl)propan-1-one]", "IC50": "< 50"},
      {"smiles": "CCC(C)Oc1cc(-c2nc(CCC(=O)c3ncccc3C)co2)ccc1OC", "note": "(stereo not drawn) [Example 311, 3-[2-(3-sec-butoxy-4-methoxyphenyl)oxazol-4-yl]-1-(3-methylpyridin-2-yl)propan-1-one]", "IC50": "< 50"}
    ]}
  ]
}
